IC50 and melting point data for nine compounds are collected here from patent US6777418B2, “Retinoid compounds (I)” (Syntex (U.S.A.) LLC, priority 2000, dated 2004).

One data set has as its target T1, RAR α (Homo sapiens, UniProt P10276).
T1 sequence (P10276 1-462): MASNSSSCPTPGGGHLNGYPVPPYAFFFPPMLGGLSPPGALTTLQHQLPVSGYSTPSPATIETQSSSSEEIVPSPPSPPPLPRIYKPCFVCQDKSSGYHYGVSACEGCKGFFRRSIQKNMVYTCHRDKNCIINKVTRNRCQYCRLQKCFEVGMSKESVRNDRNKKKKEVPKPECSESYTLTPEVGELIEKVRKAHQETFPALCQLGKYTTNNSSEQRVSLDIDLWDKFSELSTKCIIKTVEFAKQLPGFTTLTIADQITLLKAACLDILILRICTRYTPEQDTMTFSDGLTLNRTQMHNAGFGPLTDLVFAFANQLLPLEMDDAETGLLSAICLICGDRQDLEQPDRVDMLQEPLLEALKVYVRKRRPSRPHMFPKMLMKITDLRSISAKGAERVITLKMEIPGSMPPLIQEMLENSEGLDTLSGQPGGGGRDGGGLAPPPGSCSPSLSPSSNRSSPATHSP
Briefly: Ligand binding assay, retinoid receptors (Apfel et al.), RAR alpha. To be noted: first value of the cell, read-out: IC50 nM (alpha/beta/gamma): alpha. From the text:
(§1) The retinoic acid receptor agonist selectivity of a compound of the invention may be determined by using ligand binding assays known to the skilled artisan (Apfel et al., Proc. Natl. Acad. Sci., (1992), 89, 7129; Teng et al., J. Med. Chem., (1997), 40, 2445; Bryce et al., U.S. Pat. No. 5,807,900 which are herein incorporated by reference). Treatment with RAR agonists, particularly RAR γ agonists may promote repair of alveolar matrix and septation, which are in important in treating emphysema. Preferably, compounds of the invention are γ selective agonists that bind to the γ receptor with affinities between about 25 nm and about 1000 nm and show a five to ten fold selectivity over binding to the RAR α receptor. It should be noted that RAR agonists that are not γ selective may be effective in treating emphysema. Transactivation, which is the ability of a retinoid to activate gene transcription when gene transcription is initiated by the binding of a ligand to the particular retinoic acid receptor being tested, may be determined by using methods described in the art (Apfel et al., Proc. Natl. Acad. Sci., (1992), 89, 7129; Bernard et al., Biochem. And Biophys. Res. Comm., (1992), 186, 977 which is herein incorporated by reference.
(§2) The RAR α antagonist selectivity of compounds of the invention was determined by the ligand binding assays described in C. Apfel et al. Proc. Nat. Sci. Acad. (USA), 89:7129-7133 (1992).

The target of another data set is T2, RAR beta (Homo sapiens, UniProt P10826).
T2 sequence (P10826 1-455): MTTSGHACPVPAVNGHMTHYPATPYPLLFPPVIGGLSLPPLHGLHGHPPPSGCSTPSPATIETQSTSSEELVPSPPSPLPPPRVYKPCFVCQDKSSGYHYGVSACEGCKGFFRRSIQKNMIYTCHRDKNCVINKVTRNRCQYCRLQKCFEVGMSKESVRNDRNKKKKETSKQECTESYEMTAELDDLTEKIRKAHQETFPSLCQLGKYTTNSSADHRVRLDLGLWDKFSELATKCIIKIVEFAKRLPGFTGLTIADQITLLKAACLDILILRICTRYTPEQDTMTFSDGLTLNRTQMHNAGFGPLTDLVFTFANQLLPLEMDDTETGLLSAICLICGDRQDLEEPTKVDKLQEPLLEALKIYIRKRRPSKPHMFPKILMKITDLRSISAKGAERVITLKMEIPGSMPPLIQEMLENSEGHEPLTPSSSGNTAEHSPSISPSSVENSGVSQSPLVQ
The data set can be described thus: Ligand binding assay, retinoid receptors (Apfel et al.), RAR beta. As to conditions: second value of the cell, read-out: IC50 nM (alpha/beta/gamma): beta.
From the text: as §1, §2

The next data set addresses T3, RAR gamma (Homo sapiens, UniProt P13631).
T3 sequence (P13631 1-454): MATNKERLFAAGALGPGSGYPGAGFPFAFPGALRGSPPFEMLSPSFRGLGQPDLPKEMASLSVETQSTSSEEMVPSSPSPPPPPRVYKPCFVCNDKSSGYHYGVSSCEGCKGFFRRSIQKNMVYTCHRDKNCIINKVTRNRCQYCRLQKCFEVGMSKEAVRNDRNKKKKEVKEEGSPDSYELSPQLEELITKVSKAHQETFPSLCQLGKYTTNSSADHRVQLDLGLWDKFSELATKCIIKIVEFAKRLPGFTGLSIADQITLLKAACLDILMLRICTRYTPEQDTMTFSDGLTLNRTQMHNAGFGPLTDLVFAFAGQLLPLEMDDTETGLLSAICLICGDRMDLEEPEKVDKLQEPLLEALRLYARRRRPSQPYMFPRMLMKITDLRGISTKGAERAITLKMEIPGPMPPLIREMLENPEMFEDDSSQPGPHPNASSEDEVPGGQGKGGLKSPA
Briefly: Ligand binding assay, retinoid receptors (Apfel et al.), RAR gamma. As to conditions: third value of the cell, read-out: IC50 nM (alpha/beta/gamma): gamma.
From the text: as §1, §2

On to `Cc1cnn(Cc2cc3c(cc2/C=C/c2ccc(C(=O)O)cc2)C(C)(C)CCC3(C)C)c1` [Compound 20], for which the IC50 at RAR α was found to be 950 nM; at RAR beta it was 620 nM; on RAR gamma, 670 nM.

With `CCCCSCc1cc2c(cc1/C=C/c1ccc(C(=O)O)cc1)C(C)(C)CCC2(C)C` [Compound 2, 4-[(E)-2-(3-Butylthiomethyl-5,5,8,8-tetramethyl-5,6,7,8-tetrahydro-naphthalen-2-yl)vinyl]benzoic acid], the IC50 at RAR α amounted to 1000 nM; at RAR beta it was 320 nM; on RAR gamma, 190 nM.

Regarding `Cn1nnnc1SCc1cc2c(cc1/C=C/c1ccc(C(=O)O)cc1)C(C)(C)CCC2(C)C` [Compound 25], the IC50 on RAR α stood at 190 nM; on RAR beta, 100 nM; at RAR gamma, 230 nM.

On to `CCC(C)CSCc1cc2c(cc1/C=C/c1ccc(C(=O)O)cc1)C(C)(C)CCC2(C)C` (centres unmarked) [Compound 3], for which the melting point – broadly, the temperature, or range, at which the solid turns liquid – lay within 66.1 to 68.5 °C. The IC50 on RAR α turned out to be 200 nM. For the same compound, at RAR beta, the IC50 was determined as 100 nM. Moreover, the IC50 on RAR gamma worked out at 260 nM.

`COCCCc1cc2c(cc1/C=C/c1ccc(C(=O)O)cc1)C(C)(C)CCC2(C)C` [Compound 11, 4-{(E)-2-[3-(3-methoxypropyl}-5,8,8-tetramethyl-5,6,7,8-tetrahydro-naphthalen-2-yl]vinyl}benzoic acid] showed a melting point of 164.7 to 166 °C. In addition, the IC50 at RAR α worked out at 1800 nM. Besides, the IC50 on RAR beta turned out to be 1400 nM. On RAR gamma, the IC50 worked out at 210 nM.

`CC1(C)CCC(C)(C)c2cc(Cn3cccc3)c(/C=C/c3ccc(C(=O)O)cc3)cc21` [Compound 7, 4-[(E)-2-(5,5,8,8-tetramethyl-3-pyrrol-1-ylmethyl-5,6,7,8-tetrahydro-naphthalen-2-yl)vinyl]benzoic acid]: the melting point fell in the range of 255.6 to 257.4 °C. Besides, the IC50 on RAR α came out at 260 nM. Moreover, at RAR beta, the IC50 came to 140 nM. Further, at RAR gamma, the IC50 was determined as 17 nM.

Regarding `CC1(C)CCC(C)(C)c2cc(CSCc3ccco3)c(/C=C/c3ccc(C(=O)O)cc3)cc21` [Compound 8], the melting point was in the range of 169.7 to 171 °C. Further, at RAR α, the IC50 came out at 810 nM. The IC50 at RAR beta was found to be 450 nM. For the same compound, at RAR gamma, the IC50 is 26 nM.

`CC1(C)CCC(C)(C)c2cc(CO)c(/C=C/c3ccc(C(=O)O)cc3)cc21` [Compound 15]: the IC50 turned out to be 1000 nM at RAR α, 1000 nM at RAR beta and 1800 nM on RAR gamma.

In the case of `COCc1cc2c(cc1/C=C/c1ccc(C(=O)O)cc1)C(C)(C)CCC2(C)C` [Compound 1], the melting point fell in the range of 184.2 to 187.9 °C. For the same compound, the IC50 on RAR α was found to be 3600 nM. Moreover, the IC50 on RAR beta was found to be 1600 nM. In addition, the IC50 on RAR gamma was 1700 nM.
